Test results as given in article PMC6693746 (PLoS Genetics, 2019).

Legend:
ErGPCR-2 = molecular target: T1, ErGPCR-2 (Helicoverpa armigera, UniProt A0A0U1ZWU3); test: saturation binding with isolated receptor, […] enzyme immunoassay
T1 construct: ErGPCR-2-GFP-His, 7TM region and added signal peptide (GenBank AKA95280.1), isolated from Sf9 cells
T1 sequence (A0A0U1ZWU3 430-703 limits assumed): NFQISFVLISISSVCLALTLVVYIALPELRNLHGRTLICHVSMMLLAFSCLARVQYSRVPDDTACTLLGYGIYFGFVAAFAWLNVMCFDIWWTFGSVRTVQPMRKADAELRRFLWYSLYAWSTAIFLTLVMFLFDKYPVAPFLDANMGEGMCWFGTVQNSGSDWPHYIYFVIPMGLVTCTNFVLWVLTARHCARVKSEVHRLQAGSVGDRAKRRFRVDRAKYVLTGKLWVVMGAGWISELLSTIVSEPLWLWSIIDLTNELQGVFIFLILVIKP

dopamine receptor DopEcR [1] = molecular target: T2, dopamine receptor DopEcR (Helicoverpa armigera, UniProt A0A386QW71, T113A/W160A/Y109A/Y68A); test: saturation binding with isolated mutant receptor, […] enzyme immunoassay (lower Bmax)
T2 construct: DopEcR-M-GFP-His, isolated from Sf9 cells

dopamine receptor DopEcR [2] = molecular target: T3, dopamine receptor DopEcR (Helicoverpa armigera, UniProt A0A386QW71); test: saturation binding with isolated receptor, […] enzyme immunoassay; also displacement of DA (Ki […])
T3 construct: DopEcR-GFP-His (GenBank MG596302), isolated from Sf9 cells
T3 sequence (A0A386QW71 1-343): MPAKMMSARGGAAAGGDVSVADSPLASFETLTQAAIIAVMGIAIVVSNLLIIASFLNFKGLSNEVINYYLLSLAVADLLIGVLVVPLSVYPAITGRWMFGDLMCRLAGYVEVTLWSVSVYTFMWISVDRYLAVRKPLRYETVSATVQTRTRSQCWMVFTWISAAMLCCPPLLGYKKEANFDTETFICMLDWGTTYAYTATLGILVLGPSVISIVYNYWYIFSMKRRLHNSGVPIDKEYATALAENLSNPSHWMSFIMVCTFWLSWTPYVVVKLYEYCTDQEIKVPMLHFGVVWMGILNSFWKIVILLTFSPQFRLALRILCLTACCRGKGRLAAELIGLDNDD

dopamine receptor DopEcR [3] = molecular target: dopamine receptor DopEcR (Helicoverpa armigera, UniProt A0A386QW71); test: biochemical

Row | Kd (dopamine receptor DopEcR [3]) [nM] | Compound | Kd (ErGPCR-2) [nM] | Kd (dopamine receptor DopEcR [1]) [nM] | Kd (dopamine receptor DopEcR [2]) [nM]
1 |  | CC(C)(O)CC[C@@H](O)[C@](C)(O)[C@H]1CC[C@@]2(O)C3=CC(=O)[C@@H]4C[C@@H](O)[C@@H](O)C[C@]4(C)[C@H]3CC[C@]12C [20E, 20-hydroxyecdysone] | 23.3 ± 3.3 | 20.5 ± 1.98 | 18 ± 3
2 | 448 ± 101 | NCCc1ccc(O)c(O)c1 [DA, dopamine] |  |  | 
